Assay results published in patent US20010046498A1, “Chimeric prostate-homing peptides with pro-apoptotic activity” (priority 2000, published 2001).
Square brackets hold non-standard residues; d marks the D form. Ends that are not written are not given here. Peptide text beside a SMILES is read from it.

How the values were obtained:
[1] = system: normal human dermal microvessel endothelial cells (DMECs); assay type: cell-based; design: dose or concentration left out as unconfirmed; conditions: proliferation or cord formation
[2] = system: dermal microvessel endothelial cells; experiment: Mitochondrial morphology of proliferating DMECs (MitoTracker Red / DAPI); assay type: cell-based, human; conditions: 60 μM peptide, 24 hours
Protocol: Mitochondrial morphology of dermal microvessel endothelial cells was assessed in proliferating cells after treatment with 60 μM HPP-1, […]-GG-D(KLAKLAK)2 or untargeted D(KLAKLAK)2 as follows. Dermal microvessel endothelial cells were stained after 24 and 72 hours treatment with peptide by incubation for 30 min at 37° C. with 100 nM mitochondrial stain MitoTracker Red™ (Molecular Probes, Inc., Eugene Oreg.) and 500 nM of the nuclear stain DAPI (Molecular Probes, Inc.). Mitochondria were subsequently visualized using fluorescence microscopy (100×) under an inverted microscope using a triple wavelength filter set (Nikon).

[3] = system: rat liver mitochondria; experiment: Mitochondrial swelling assay (optical absorbance at 520 nm); assay type: biochemical
Protocol: Mitochondrial swelling assays were performed as follows. Briefly, rat liver mitochondria were prepared as described in Ellerby et al., J. Neurosci. 17:6165-6178 (1997). Peptides were synthesized at higher than 90% purity by HPLC (DLSLARLATARLAI (SEQ ID NO: 204), Coast Scientific, Inc., San Diego, Calif.; all other peptides, AnaSpec, Inc.). Mitochondria were treated with a concentration of 10 μM D(KLAKLAK)2, 10 μM DLSLARLATARLAI negative control peptide (SEQ ID NO: 204), or 200 μM CA^+2 as a positive control. Peptides were added to mitochondria in a cuvette, and swelling was quantified by measuring the optical absorbance at 520 nm.

[4] = Cytotoxicity to eukaryotic cells (lethal concentration for 50% of a cell monolayer); assay type: cell-based; conditions: human; lethal concentration required to kill 50% of a cell monolayer; read-out: concentration required to kill eukaryotic cells (LC50)
Protocol: (§1) Mild swelling was evident at a concentration of 3 μM, two orders of magnitude less than the concentration required to kill eukaryotic cells (approximately 300 μM), as measured by the lethal concentration required to kill 50% of a cell monolayer (LC50; Table 1).
(§2) Percent viability and LC50 (Table 1) were determined by apoptotic morphology as described in Ellerby et al., J. Neurosci. 17:6165-6178 (1997). For the percent viability assays, dermal microvessel endothelial cells were treated with 60 μM HPP-1 or control peptide D(KLAKLAK)2. At the indicated time points, cell culture medium was aspirated from adherent cells, and the cells were gently washed once with PBS at 37° C. Subsequently, a 20-fold dilution of the dye mixture (100 μg/ml acridine orange and 100 μg/ml ethidium bromide) in PBS was gently pipetted on the cells, which were viewed on an inverted microscope (Nikon TE 300). […] At least 500 cells were scored for a given time point in each experiment. Percent viability was calculated relative to untreated controls. The LC50 for monolayer, proliferation ([…]), and cord formation were scored at 72 hours.

[5] = in vitro; assay type: cell-based; conditions: human; monolayer at 100% confluency; scored at 72 hours; means of three independent experiments; read-out: LC50 DMEC Angiostatic
Protocol: (§3) The effect of HPP-1 was assayed on normal human dermal microvessel endothelial cells (DMECs) under the angiogenic conditions of proliferation and cord formation. In addition, the effect of HPP-1 was assayed under the angiostatic condition of a monolayer maintained at 100% confluency (as described below).
(§4) Briefly, dermal microvessel endothelial cells (DMECs) were grown in CADMEC Growth Media™ (Cell Applications, Inc.; San Diego, Calif.). Dermal microvessel endothelial cells were then cultured under three experimental conditions: proliferation, 30% confluency in a growth media supplemented with 500 ng/ml human recombinant vascular endothelial growth factor (VEGF; Pharmingen); no proliferation, 100% confluency in media formulated to maintain a monolayer; and cord formation, 60% confluency (required for induction) in media formulated to induce cord formation. The KS1767 and MDA-MB-435 cells were cultured as described in Arap et al., supra, 1998; Hernier et al., supra, 1994).
as §2

[6] = system: caspase-3 processing in rat liver mitochondria suspended in normal cytosolic extract; experiment: Mitochondria-dependent cell-free apoptosis (caspase-3 processing immunoblot); assay type: biochemical; conditions: 100 μM peptide, 2 hours, in the presence of mitochondria
Protocol: The D(KLAKLAK)2 peptide was assayed for the ability to activate mitochondria-dependent apoptosis in a cell-free system composed of normal mitochondria suspended in normal cytosolic extract (Ellerby et al., J. Neurosci. 17:6165-6178 (1997)).
The cell-free apoptosis assays were performed essentially as follows. The cell-free systems were reconstituted as described in Ellerby et al., supra, 1997, and, for mitochondria-dependent reactions, rat liver mitochondria were suspended in normal (non-apoptotic) cytosolic extract prepared from dermal microvessel endothelial cells. After adding peptides at a concentration of 100 μM and incubating for 2 hours at 30° C. or 37° C., mitochondria were removed by centrifugation, and the supernatant analyzed by SDS/PAGE immunoblotting on a 12% gel (Biorad; Hercules, Calif.). Proteins were transferred to PVDF membranes (Biorad) and incubated with anti-caspase-3 antibody (Santa Cruz Biotechnology; Santa Cruz, Calif.), followed by ECL detection (Amersham; Arlington Heights, Ill.).

[7] = system: prostate cancer in TRAMP mice; experiment: Treatment of TRAMP mice (transgenic prostate cancer); assay type: in vivo; conditions: 250 μg/dose; 10 mice per group
Protocol: TRAMP mice develop prostate cancer under the influence of a transgene as described in Gingrich et al., supra, 1996. SMSIARL-GG-D(KLAKLAK)2 chimeric peptide was assayed for the ability to suppress cancer development in the TRAMP mice. Treatment was initiated at 12 weeks of age with mice (10 per group) receiving SMSIARL-GG-D(KLAKLAK)2 peptide or control peptide at 250 μg/dose every other week for a total of 10 doses. Four mice, which had no visible tumor, were eliminated from the SMSIARL-GG-D(KLAKLAK)2 group after dying within minutes after the injection.

[8] = system: normal mouse prostate; experiment: Prostate-selective apoptosis (TUNEL staining); assay type: in vivo; conditions: single dose of 250 μg peptide/mouse; 24 hours
Protocol: The ability of the SMSIARL peptide (SEQ ID NO: 207) to deliver a pro-apoptotic peptide, D(KLAKLAK)2, to the prostate was analyzed. Briefly, SMSIARL-GG-D(KLAKLAK)2 chimeric peptide or control material was administered as a single dose of 250 μg peptide/mouse, and TUNEL staining was performed on tissues obtained 24 hours later.

[9] = system: normal human dermal microvessel endothelial cells (DMECs); experiment: in vitro; assay type: cell-based; conditions: controls and alternative prototype; data not shown
Protocol: as §3, §4, §2

[10] = system: breast carcinoma xenografts; experiment: Competition of phage homing by co-injected free peptide
[11] = system: eukaryotic cells; experiment: Cytotoxicity to eukaryotic cells (lethal concentration for 50% of a cell monolayer); assay type: cell-based
Protocol: as §1, §2

[12] = system: human 435 breast carcinoma tumor; experiment: In vivo targeting of RGD phage to breast tumor; design: species or system nude mice; conditions: coinjection of 500 μg free peptide
Protocol: Human 435 breast carcinoma cells were inoculated into the mammary fat pad of nude mice. When the tumors attained a diameter of about 1 cm, phage expressing a specific RGD-containing peptide were administered to the tumor bearing mouse. Similar results to those discussed below also were obtained with nude mice bearing tumors formed by implantation of human melanoma C8161 cells or by implantation of mouse B16 melanoma cells.
1×10^9 phage expressing the RGD-containing peptide, […] (SEQ ID NO: 1; see, Koivunen et al., supra, 1995) or control (insertless) phage were injected intravenously (iv) into the mice and allowed to circulate for 4 min. The mice then were snap frozen or perfused through the heart while under anesthesia, and various organs, including tumor, brain and kidney, were removed and the phage present in the organs was quantitated (see U.S. Pat. No. 5,622,699; Pasqualini and Ruoslahti, supra, 1996).

[13] = system: bacteria; conditions: Javadpour et al. 1996; cited from earlier work
[14] = system: prostate; experiment: In vivo panning of X7 phage library, prostate versus brain; design: species or system mice; conditions: phage displayed peptide
Protocol: An X7 library was injected into mice, and sequences isolated that were preferentially found in prostate as compared to brain as described in WO 99/46284.

[15] = system: prostate tissue; experiment: Prostate homing of SMSIARL phage after intravenous injection; assay type: in vivo, mice; conditions: coinjection
Source text: Using in vivo screening of a heptapeptide phage library, a prostate-homing peptide has been identified that concentrates in the prostate 35-fold more than in various other tissues.

In the case of CC(C)C[C@@H](NC(=O)[C@H](N)CCCCN)C(=O)N[C@H](C)C(=O)N[C@H](CCCCN)C(=O)N[C@H](CC(C)C)C(=O)N[C@H](C)C(=O)N[C@H](CCCCN)C(=O)N[C@H](CCCCN)C(=O)N[C@H](CC(C)C)C(=O)N[C@H](C)C(=O)N[C@H](CCCCN)C(=O)N[C@H](CC(C)C)C(=O)N[C@H](C)C(=O)N[C@H](CCCCN)C(=O)O [D(KLAKLAK)2], the “percent viability with time relative to untreated controls” value [1] is reported as “negligible loss in viability”, the mitochondrial morphology [2] is reported as “remained morphologically normal” and the mitochondrial swelling ([3]; 3 μM peptide) is reported as “Mild swelling”. For the same compound, the mitochondrial swelling ([3]; 10 μM peptide) was “marked mitochondrial swelling”, the CC50 at 72 h [4] was about 300 µM and the CC50 at 72 h [5] was 492 µM. For the same compound, the “caspase-3 processing in cell-free system” value [6] was “characteristic caspase-3 processing the active protease was observed”.
With CC[C@H](C)[C@H](NC(=O)[C@H](CO)NC(=O)[C@H](CCSC)NC(=O)[C@@H](N)CO)C(=O)N[C@@H](C)C(=O)N[C@@H](CCCNC(=N)N)C(=O)N[C@@H](CC(C)C)C(=O)NCC(=O)NCC(=O)N[C@H](CCCCN)C(=O)N[C@H](CC(C)C)C(=O)N[C@H](C)C(=O)N[C@H](CCCCN)C(=O)N[C@H](CC(C)C)C(=O)N[C@H](C)C(=O)N[C@H](CCCCN)C(=O)N[C@H](CCCCN)C(=O)N[C@H](CC(C)C)C(=O)N[C@H](C)C(=O)N[C@H](CCCCN)C(=O)N[C@H](CC(C)C)C(=O)N[C@H](C)C(=O)N[C@H](CCCCN)C(=O)O [SMSIARL-GG-D(KLAKLAK)2] (H-SMSIARLGG[dK][dL][dA][dK][dL][dA][dK][dK][dL][dA][dK][dL][dA][dK]-OH) the “mice dying within minutes after the injection” value [7] was “Four” and the “apoptosis in other tissues such as testis, kidney or brain (TUNEL)” value [8] was “no evidence of increased apoptosis”.
In the case of “CARAC-GG-D(KLAKLAK)2 [reference compound]”, the “effect on viability of dermal microvessel endothelial cells, compared with other peptide” value [9] is reported as “results similar to D(KLAKLAK) 2”.
For “CGRNC-GG-D(KLAKLAK)2 [reference compound]”, the “effect on viability of dermal microvessel endothelial cells, compared with other peptide” value [9] was “results similar to D(KLAKLAK) 2”.
With “CNGRC (not fully specified; cysteine pairing not given here)” the “effect of co-injected peptide on homing of […] phage” value [10] was “did not inhibit” and the “effect of co-injected peptide on accumulation of NGR phage in tumor” value ([10]; phage expressing CNGRCVSGCAGRC) was “inhibited”.
With “DLSLARLATARLAI [non-α-helix forming negative control peptide]” the mitochondrial swelling ([3]; 10 μM peptide) was “did not induce mitochondrial swelling”, the “lethality to eukaryotic cells” value [11] was “not lethal” and the “caspase-3 processing in cell-free system” value [6] was “inactive”.
In the case of GRGESP, the “reduction of phage in the tumor by coinjected free peptide” value [12] is reported as “essentially had no effect”.
In the case of “KLAKLAKKLAKLAK [synthetic antimicrobial 14-mer of Javadpour et al]”, the “concentration that kills bacteria relative to concentration required to kill eukaryotic cells” value [13] is given as “two orders of magnitude lower”.
In the case of SMSIARL [prostate homing peptide], the “enrichment in prostate as compared to brain” value [14] is reported as 34 fold and the “effect of coinjected synthetic peptide on prostate-selective phage homing” value [15] is reported as “inhibited the prostate-selective homing of phage”.
For VSFLEYR [prostate homing peptide], the “enrichment in prostate as compared to brain” value [14] was 17 fold.
